BindingDB's records for doi:10.1021/acs.jmedchem.5b00570 (Academy of Sciences of The Czech Republic V.V.I., 2015)

Experiments:
[1] = biological target: Glutamate receptor ionotropic, NMDA 1/2A (Homo sapiens, UniProt Q12879+Q05586); assay: Inhibition of recombinant GluN1/GluN2A receptor (unknown origin) expressed in HEK293 cells assessed as inhibition of glutamate-evoked current by whole-cell voltage-clamp method
[2] = biological target: Glutamate receptor ionotropic, NMDA 1/2B (Homo sapiens, UniProt Q05586+Q13224); assay: Inhibition of recombinant GluN1/GluN2B receptor (unknown origin) expressed in HEK293 cells assessed as inhibition of glutamate-evoked current by whole-cell voltage-clamp method
Sequence of Glutamate receptor ionotropic, NMDA 1/2B (Q13224 whole entry, other chains not shown): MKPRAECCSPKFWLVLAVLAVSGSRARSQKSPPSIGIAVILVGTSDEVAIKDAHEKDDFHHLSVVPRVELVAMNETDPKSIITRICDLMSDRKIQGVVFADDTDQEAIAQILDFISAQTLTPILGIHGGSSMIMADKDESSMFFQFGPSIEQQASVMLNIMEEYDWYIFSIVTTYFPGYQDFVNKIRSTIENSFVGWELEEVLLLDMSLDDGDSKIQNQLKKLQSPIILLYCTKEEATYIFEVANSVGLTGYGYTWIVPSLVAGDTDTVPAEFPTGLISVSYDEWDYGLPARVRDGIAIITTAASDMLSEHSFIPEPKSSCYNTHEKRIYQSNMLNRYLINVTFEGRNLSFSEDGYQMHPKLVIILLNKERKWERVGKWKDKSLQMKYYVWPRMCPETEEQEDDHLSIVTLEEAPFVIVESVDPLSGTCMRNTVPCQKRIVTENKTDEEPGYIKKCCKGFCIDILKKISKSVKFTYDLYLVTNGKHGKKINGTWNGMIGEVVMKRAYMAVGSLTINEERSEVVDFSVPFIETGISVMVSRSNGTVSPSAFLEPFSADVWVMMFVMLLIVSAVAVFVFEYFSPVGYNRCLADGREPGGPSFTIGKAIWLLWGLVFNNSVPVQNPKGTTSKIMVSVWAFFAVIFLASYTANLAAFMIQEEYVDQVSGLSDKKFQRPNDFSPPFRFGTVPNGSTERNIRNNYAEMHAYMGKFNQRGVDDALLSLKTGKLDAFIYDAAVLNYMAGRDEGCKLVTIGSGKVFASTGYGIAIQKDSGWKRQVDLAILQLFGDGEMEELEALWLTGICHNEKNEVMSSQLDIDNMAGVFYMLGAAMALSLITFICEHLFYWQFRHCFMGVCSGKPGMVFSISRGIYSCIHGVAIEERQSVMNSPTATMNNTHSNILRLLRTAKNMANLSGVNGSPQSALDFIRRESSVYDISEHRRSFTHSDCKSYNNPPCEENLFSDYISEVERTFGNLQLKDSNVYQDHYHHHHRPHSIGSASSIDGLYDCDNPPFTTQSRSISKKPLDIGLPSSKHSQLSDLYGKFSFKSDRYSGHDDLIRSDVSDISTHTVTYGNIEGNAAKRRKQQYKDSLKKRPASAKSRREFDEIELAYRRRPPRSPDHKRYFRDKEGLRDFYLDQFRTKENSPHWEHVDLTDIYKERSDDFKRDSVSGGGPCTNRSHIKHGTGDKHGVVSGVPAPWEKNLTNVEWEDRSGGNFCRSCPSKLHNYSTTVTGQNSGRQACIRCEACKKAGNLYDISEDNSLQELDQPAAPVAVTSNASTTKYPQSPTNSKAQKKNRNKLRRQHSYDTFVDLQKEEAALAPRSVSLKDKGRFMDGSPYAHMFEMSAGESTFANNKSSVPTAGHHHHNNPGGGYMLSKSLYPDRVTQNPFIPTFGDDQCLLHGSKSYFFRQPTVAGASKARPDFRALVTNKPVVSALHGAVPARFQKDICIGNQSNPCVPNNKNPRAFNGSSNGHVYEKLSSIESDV

[3] = biological target: Glutamate receptor ionotropic, NMDA 1/2C (Homo sapiens, UniProt Q05586+Q14957); assay: Inhibition of recombinant GluN1/GluN2C receptor (unknown origin) expressed in HEK293 cells assessed as inhibition of glutamate-evoked current by whole-cell voltage-clamp method
Sequence of Glutamate receptor ionotropic, NMDA 1/2C (Q14957 whole entry, other chains not shown): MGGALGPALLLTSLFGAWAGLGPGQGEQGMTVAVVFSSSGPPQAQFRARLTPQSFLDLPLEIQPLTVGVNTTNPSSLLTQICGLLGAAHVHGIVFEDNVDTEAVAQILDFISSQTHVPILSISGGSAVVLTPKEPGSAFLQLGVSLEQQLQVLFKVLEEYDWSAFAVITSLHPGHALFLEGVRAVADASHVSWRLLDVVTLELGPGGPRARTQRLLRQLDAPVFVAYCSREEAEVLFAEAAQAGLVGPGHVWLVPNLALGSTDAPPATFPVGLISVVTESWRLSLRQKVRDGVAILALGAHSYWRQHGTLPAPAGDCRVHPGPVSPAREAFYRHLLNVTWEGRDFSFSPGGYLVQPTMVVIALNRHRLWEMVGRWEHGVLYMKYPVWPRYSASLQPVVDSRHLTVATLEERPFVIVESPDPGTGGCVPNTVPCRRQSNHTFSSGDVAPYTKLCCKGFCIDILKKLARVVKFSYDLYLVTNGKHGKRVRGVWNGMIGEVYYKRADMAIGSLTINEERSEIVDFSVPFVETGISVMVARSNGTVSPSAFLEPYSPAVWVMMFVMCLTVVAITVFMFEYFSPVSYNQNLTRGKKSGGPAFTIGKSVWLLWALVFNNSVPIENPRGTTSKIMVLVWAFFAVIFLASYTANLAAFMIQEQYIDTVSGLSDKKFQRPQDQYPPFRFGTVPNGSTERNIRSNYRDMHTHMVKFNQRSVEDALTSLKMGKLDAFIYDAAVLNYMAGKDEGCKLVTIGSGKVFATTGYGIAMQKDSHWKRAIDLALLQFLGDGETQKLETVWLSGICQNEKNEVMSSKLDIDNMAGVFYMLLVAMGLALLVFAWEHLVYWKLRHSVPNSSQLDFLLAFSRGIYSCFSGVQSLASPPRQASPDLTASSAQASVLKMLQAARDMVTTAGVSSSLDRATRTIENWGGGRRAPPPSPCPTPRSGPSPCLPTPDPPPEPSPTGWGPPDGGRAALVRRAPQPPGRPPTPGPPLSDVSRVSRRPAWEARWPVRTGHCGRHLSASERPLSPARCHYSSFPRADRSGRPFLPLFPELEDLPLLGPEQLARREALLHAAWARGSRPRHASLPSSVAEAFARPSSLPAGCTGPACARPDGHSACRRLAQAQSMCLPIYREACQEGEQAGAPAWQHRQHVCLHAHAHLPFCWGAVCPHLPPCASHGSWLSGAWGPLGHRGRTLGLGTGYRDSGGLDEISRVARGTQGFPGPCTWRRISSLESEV

[4] = biological target: Glutamate receptor ionotropic, NMDA 1/2D (Homo sapiens, UniProt Q05586+O15399); assay: Inhibition of recombinant GluN1/GluN2D receptor (unknown origin) expressed in HEK293 cells assessed as inhibition of glutamate-evoked current by whole-cell voltage-clamp method

Sequence of Glutamate receptor ionotropic, NMDA 1/2A (Q12879 whole entry, other chains not shown): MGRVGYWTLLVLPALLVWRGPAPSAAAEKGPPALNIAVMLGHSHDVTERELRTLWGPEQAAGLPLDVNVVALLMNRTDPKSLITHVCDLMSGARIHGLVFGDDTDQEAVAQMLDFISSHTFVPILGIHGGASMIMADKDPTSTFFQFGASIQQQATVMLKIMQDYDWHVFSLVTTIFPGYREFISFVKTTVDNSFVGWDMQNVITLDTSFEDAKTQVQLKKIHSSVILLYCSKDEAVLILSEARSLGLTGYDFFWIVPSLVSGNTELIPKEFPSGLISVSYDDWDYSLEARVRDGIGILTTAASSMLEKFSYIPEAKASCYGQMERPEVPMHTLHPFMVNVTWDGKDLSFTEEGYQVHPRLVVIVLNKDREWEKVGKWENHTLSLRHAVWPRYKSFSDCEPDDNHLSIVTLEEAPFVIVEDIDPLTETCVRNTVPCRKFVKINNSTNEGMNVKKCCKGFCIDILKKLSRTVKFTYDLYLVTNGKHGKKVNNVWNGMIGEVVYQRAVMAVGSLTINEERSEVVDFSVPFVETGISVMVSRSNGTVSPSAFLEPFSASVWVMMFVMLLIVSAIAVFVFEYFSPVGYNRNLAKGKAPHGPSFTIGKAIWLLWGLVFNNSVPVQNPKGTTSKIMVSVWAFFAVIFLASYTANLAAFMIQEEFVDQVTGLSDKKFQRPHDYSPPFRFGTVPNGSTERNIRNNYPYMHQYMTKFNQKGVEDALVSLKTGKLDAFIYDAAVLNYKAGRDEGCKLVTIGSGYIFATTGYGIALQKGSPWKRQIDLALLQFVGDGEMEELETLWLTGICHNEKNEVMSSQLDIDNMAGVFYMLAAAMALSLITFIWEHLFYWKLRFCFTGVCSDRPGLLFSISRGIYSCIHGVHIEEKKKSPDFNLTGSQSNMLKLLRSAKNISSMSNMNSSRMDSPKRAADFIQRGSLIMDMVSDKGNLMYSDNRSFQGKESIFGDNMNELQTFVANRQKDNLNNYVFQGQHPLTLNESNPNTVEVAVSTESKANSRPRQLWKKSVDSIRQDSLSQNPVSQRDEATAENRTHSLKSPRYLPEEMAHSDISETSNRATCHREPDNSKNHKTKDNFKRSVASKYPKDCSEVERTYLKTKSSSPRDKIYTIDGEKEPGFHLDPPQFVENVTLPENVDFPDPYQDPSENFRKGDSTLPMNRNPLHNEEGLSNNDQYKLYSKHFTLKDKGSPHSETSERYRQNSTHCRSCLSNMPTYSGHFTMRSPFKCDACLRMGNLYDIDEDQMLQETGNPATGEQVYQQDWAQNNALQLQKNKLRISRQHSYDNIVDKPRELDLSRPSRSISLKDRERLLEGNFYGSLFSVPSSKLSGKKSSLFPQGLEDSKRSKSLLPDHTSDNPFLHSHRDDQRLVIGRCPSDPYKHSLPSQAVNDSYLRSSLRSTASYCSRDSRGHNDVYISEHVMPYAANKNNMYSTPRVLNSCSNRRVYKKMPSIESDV

IC50 [1]: 600 nM
IC50 [2]: 600 nM
IC50 [3]: 400 nM
IC50 [4]: 500 nM
Structure (SMILES): C[C@H]1CC[C@H]2[C@@H]3CC[C@@H]4C[C@H](OS(=O)(=O)O)CC[C@]4(C)[C@H]3CC[C@]12C
